What was measured:
blood GIP level = test: Effect of oral GPR119 agonist on plasma GIP level (rodent total GIP ELISA) in wild-type mice, with oral glucose bolus; assay type: in vivo, C57blk/6 male mice; details: 20 mg/kg per orally vs vehicle PET, FIG. 1A
Description: A. C57blk/6 male mice were fasted for 18 hours, and randomly assigned into fourteen groups with n=6 for each group. Mice were administered per orally with vehicle (PET; 80% PEG400, 10% ethanol, 10% Tween80) or with a GPR119 agonist in accordance with the present invention (Compound 1Z; (2-Fluoro-4-methanesulfonyl-phenyl)-{6-[4-(3-isopropyl-[1,2,4]oxadiazol-5-yl)-piperidin-1-yl]-5-nitro-pyrimidin-4-yl}-amine) at 20 mg/kg, as indicated in FIG. 1A. Thirty minutes after treatment, a glucose bolus at 3 g/kg were delivered per orally, and plasma were collected at 0 (no glucose bolus), 2, 5, 10, 20, 40 and 60 minutes after glucose bolus. Plasma GIP levels were determined by using a rodent GIP ELISA kit purchased from Linco Research Laboratory [Rat/Mouse Gastric Inhibitory Polypeptide (Total) ELISA Catalog #EZRMGIP-55K], following instructions provided by the supplier. […]
B. C57blk/6 male mice were fasted for 18 hours, and randomly assigned into fourteen groups with n=6 for each group. […] Plasma GIP levels were determined by using a rodent GIP ELISA kit purchased from Linco Research Laboratory [Rat/Mouse Gastric Inhibitory Polypeptide (Total) ELISA Catalog #EZRMGIP-55K], following instructions provided by the supplier. […] Mean values of GIP concentration were calculated based on results with six mice in each group and shown as mean±SEM. […]

GPR119 receptor [1] = target: T1, GPR119 receptor (Mus musculus, UniProt Q7TQP3); test: Effect of oral GPR119 agonist on plasma GIP level in GPR119-deficient (knockout) mice compared to wild-type littermates; assay type: in vivo; details: 20 mg/kg per orally; wild-type littermates; time 0 and 5 min after glucose bolus 3 g/kg; FIG. 2A
T1 construct: from tissue; host or cells: whole animal: wild-type male mice dosed orally, compared with GPR119-deficient littermates
T1 sequence (Q7TQP3 1-335): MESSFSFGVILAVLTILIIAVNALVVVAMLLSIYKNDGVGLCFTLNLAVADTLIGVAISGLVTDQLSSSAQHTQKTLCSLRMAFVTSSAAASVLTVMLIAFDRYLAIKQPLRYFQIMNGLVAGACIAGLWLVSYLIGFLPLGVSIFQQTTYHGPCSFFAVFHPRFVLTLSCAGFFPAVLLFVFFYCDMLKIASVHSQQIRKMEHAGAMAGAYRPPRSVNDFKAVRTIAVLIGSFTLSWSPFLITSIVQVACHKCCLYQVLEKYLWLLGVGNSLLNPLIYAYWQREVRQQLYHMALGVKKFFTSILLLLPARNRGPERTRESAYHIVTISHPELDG
Description: (§1) A. GPR119-deficient male mice and wild-type littermates were fasted for 18 hours. Mice were administered per orally with vehicle (PET; 80% PEG400, 10% ethanol, 10% Tween80) or with a GPR119 agonist in accordance with the present invention (Compound 1Z; (2-Fluoro-4-methanesulfonyl-phenyl)-{6-[4-(3-isopropyl-[1,2,4]oxadiazol-5-yl)-piperidin-1-yl]-5-nitro-pyrimidin-4-yl}-amine) at 20 mg/kg, as indicated (n=5). Thirty minutes after treatment, blood (100 microliter) was collected via retro orbital vein of the eye (time 0) followed by a glucose bolus at 3 g/kg (per orally). Five minutes after delivering glucose, another blood sample (100 microliter) was collected (time 5 minutes). Plasma were collected after centrifugation and GIP levels were determined by using a rodent GIP ELISA kit purchased from Linco Research Laboratory [Rat/Mouse Gastric Inhibitory Polypeptide (Total) ELISA Catalog #EZRMGIP-55K], following instructions provided by the supplier. […]
(§2) B. GPR119-deficient male mice and wild-type littermates were fasted for 18 hours. […] Plasma were collected after centrifugation and GIP levels were determined by using a rodent GIP ELISA kit purchased from Linco Research Laboratory [Rat/Mouse Gastric Inhibitory Polypeptide (Total) ELISA Catalog #EZRMGIP-55K], following instructions provided by the supplier. […]

GPR119 receptor [2] = test: as above; assay type: in vivo; details: 20 mg/kg per orally vs vehicle PET; blood at time 0 and 5 min after glucose bolus 3 g/kg; FIG. 2A
Description: as §1, §2

CC(C)c1noc(C2CCN(c3ncnc(Nc4ccc(S(C)(=O)=O)cc4F)c3[N+](=O)[O-])CC2)n1 [Compound 1Z, (2-Fluoro-4-methanesulfonyl-phenyl)-{6-[4-(3-isopropyl-[1,2,4]oxadiazol-5-yl)-piperidin-1-yl]-5-nitro-pyrimidin-4-yl}-amine]
level of GIP in the blood of the mice (glucose-dependent and glucose-independent) (blood GIP level; glucose bolus 3 g/kg 30 min after treatment, plasma at 0 (no glucose bolus), 2, 5, 10, 20, 40, 60 min): increased both a glucose-dependent and a glucose-independent level of GIP
plasma total GIP (blood GIP level; glucose bolus 3 g/kg, time course 0-60 min): stimulated plasma total GIP
plasma total GIP in wild-type mice (GPR119 receptor [1]): stimulated plasma total GIP in the wild-type mice
glucose-independent and glucose-dependent level of GIP in the blood, GPR119-deficient vs wild-type mice (GPR119 receptor [2]): functional GPR119 receptor was necessary for the administered GPR119 agonist to increase a glucose-independent level and a glucose-dependent level of GIP

— patent US8101626B2, “GPR119 receptor agonists in methods of increasing bone mass and of treating osteoporosis and other conditions characterized by low bone mass, and combination therapy relating thereto” (Arena Pharmaceuticals, Inc., priority 2006, dated 2012)
